Measured values as given in patent US20100137396A1, “TREATMENT OF ESOPHAGEAL HIGH GRADE DYSPLASIA USING PHOTODYNAMIC THERAPY” (Health Research, Inc, priority 2007, published 2010).

Legend:
[1] = Normal tissue damage after photodynamic therapy (strictures; erythema, edema and necrosis); assay type: in vivo, human; details: after first PDT treatment
Experimental: Nevertheless, PHOTOFRIN™ at an optimized dose level of 2 mg/kg body weight and activation at its preferential light absorption wavelength of 630 nm, and optimized light exposure results in a first treatment complete cure rate of about 32 percent and a two treatment complete cure rate of about 58 percent and a three treatment complete cure rate of about 77 percent. Unfortunately, the treatment also results in significant damage to surrounding normal tissue. Normal tissue damage for PHOTOFRIN™, as measured by percent of strictures at only a single treatment is about 12% and using other reported data concerning PHOTOFRIN™ treatment, is greater than 20 percent based upon toxicity as determined by the presence of erythema, edema and necrosis.
(§1) Using the above parameters, a phase I/II trial using HPPH and a phase III trial using PHOTOFRIN™, the latter approved by the United States Food and Drug Administration, the following results for response of high grade dysplasia were obtained, with CR being defined as complete ablation of high grade dysplasia.

[2] = test system: esophageal high grade dysplasia; experiment: Photodynamic therapy trials, response of high grade dysplasia (phase I/II HPPH, phase III PHOTOFRIN); assay type: in vivo, human; details: for Response After First Treatment, CR (complete ablation of high grade dysplasia): after first PDT treatment, patients with high grade dysplasia; for Response After Second Treatment, expected cure rate / Response After Third Treatment, expected cure rate: calculated from first-treatment rate applied to remaining uncured
Experimental: The method of the invention includes the steps of: • injecting HPPH in a physiologically compatible medium into a patient having high grade esophageal dysplasia to provide a dose level of 3 through 5 mg/m^2 of body surface area, preferably 3 through 4 mg/m^2 of body surface area. • waiting for a time period of 24 through 60 hours to permit preferential absorption of the HPPH into the high grade dysplasia tissue, and • exposing the esophageal high grade dysplasia tissue to light at a wavelength of about 670±5 nm at an energy of from about 75 to about 200 Joules/cm, preferably 75 to about 150 Joules/cm.
Injection of the HHPH is preferably accomplished intravenously usually over a time period of 0.75 to 3 hours in a physiologically compatible medium. The time period is functionally dependent upon rate of infusion and dose level desired The concentration is preferably 0.5-through 1.5 mg/ml in medium and the medium is preferably 0.1% polysorbate 80, 2% ethyl alcohol and 5% glucose in normal saline.
Exposure is accomplished using a fiber optic carrying laser light emitted by a laser. The laser may be any suitable laser emitting light at the wavelength and energy desired, e.g. a dye or diode laser. Exposure may be adjusted by length of time of exposure and/or adjustment of light intensity.
as §1

[3] = cited from earlier work
[4] = test system: esophageal high grade dysplasia; details: 2 mg/kg body weight, 630 nm, optimized light exposure; cited from earlier work
[5] = treatment concentration of 2 mg/kg; cited from earlier work

Substance | First Treatment Normal Tissue Damage, strictures [1] | effectiveness against high grade dysplasia and side effects compared with PHOTOFRIN ([2]; 3 to 5 mg/m^2 of body surface area, light at 670±5 nm) | Response After First Treatment, CR (complete ablation of high grade dysplasia) [2] | Response After Second Treatment, expected cure rate [2] | Response After Third Treatment, expected cure rate [2] | Normal tissue damage as measured by percent of strictures ([3]; at only a single treatment) | Normal tissue damage based upon toxicity as determined by the presence of erythema, edema and necrosis ([3]; other reported data concerning PHOTOFRIN treatment) | first treatment complete cure rate [4] | three treatment complete cure rate [4] | two treatment complete cure rate [4] | Response After Second Treatment, cure rate (observed) ([2]; after second PDT treatment) | Response After Third Treatment, cure rate (observed) ([2]; after third PDT treatment) | phototoxicity [5]
3-(1-hexyloxy) ethyl-derivative of pyropheophorbide-a [HPPH] | 3% strictures | more effective against high grade dysplasia with fewer side effects than PHOTOFRIN™ | 49% CR | 74% expected cure rate | 87% expected cure rate (based | – | – | – | – | – | – | – | –
porfimer sodium [PHOTOFRIN ™] | 12% strictures | – | 32% CR | 54% expected cure rate (based upon | 71% expected cure rate (based upon | about 12% | greater than 20% | about 32% | about 77% | about 58% | 58% cure rate (observed) | 77% cure rate (observed) | can cause serious phototoxicity
